Test results: patent US11932638B2, “Ion channel inhibitor compounds for cancer treatment” (Centre National de la Recherche Scientifique, priority 2017, dated 2024)
Each block holds one molecule with its values, some of them ahead of it.

Legend:
SK3 channel = biological target: T1, SK3 channel (Rattus norvegicus, UniProt P70605); assay: Conventional manual patch clamp on HEK-rSK3 cells, SK3 channel activity; format: cell-based; conditions: for inhibition at 0.001 µM: 1 nM; for inhibition at 0.05 µM: 50 nM; for inhibition at 0.5 µM: 500 nM
T1 construct: expressed in transfected cells
Source text: (§1) Cell Lines Used to Screen the Molecules on the Activity of SKCa Channels (Small Conductance Calcium-Activated Potassium Channel; SK1, SK2 and SK3) and IKCa Channels (Intermediate Conductance Calcium-Activated Potassium Channel, SK4)
(§2) Use was made of the HEK 293 T line, a foetal kidney line which was immortalised with the T antigen of the […] simian virus. This cell line is widely used on account of the ease with which these cells can be transfected with plasmids or other transfection vectors. Four stable lines were used for patch clamp experiments: HEK-hSK1, HEK-rSK2, HEK-rSK3 and HEK-IKCa/SK4 which respectively overexpress the SK1, SK2, SK3 and SK4 channels. The lines were obtained via stable transduction (Girault et al., Current Cancer Drug Targets, 2011, 11, 1111-25) and are those already routinely used to assay SK3 modulators (Potier et al. Br J Pharmacol. 2011 January; 162(2):464-79; Sevrain et al., Med. Chem. Commun., 2012, 3, 1471-1478; Sevrain et al., Organic & Biomolecular Chemistry, 2013 Jul. 21; 11(27):4479-87, Berthe W, Sevrain C M, Chantôme A, Bouchet A M, Gueguinou M, Fourbon Y, Potier-Cartereau M, Haelters J P, Couthon-Gourvès H, Vandier C, Jaffrès P A. ChemMedChem. 2016 Jul. 19; 11(14):1531-9). […] These lines therefore enabled us without difficulty to examine the effect of the molecules on the SK3 channel, and also the selectivity thereof by means of the patch clamp technique. The inhibitory activity of the non-toxic molecules was assayed on the activity of the SK3 channel. The selectivity of the molecules was determined by patch clamp on HEK cell models stably expressing the SK3 channel but also the SK1, SK2, SK3 or IKCa/SK4 channels.
Electrophysiology/Patch-Clamp
(§3) Patch clamp is a technique allowing measurement of the activity of ion channels by recording macroscopic (whole cell configuration) or microscopic (e.g. inside out configuration) ionic currents through the plasma membrane. For assay of the effect of the molecules on the SKCa/IKCa channels, two complementary techniques were used: conventional, manual patch clamp and automated patch clamp with the Nanion NPC-16 Patchliner Quattro (4 channels) (Potier et al., Mol Cancer Ther 2006, 5, 2946-53; Chantome et al., Exp Cell Res 2009, 315, 3620-30; Potier et al., Biochem Biophys Res Commun 2010, 397, 42-7; Girault et al., Current Cancer Drug Targets, 2011, 11, 1111-25; Sevrain et al., Med. Chem. Commun., 2012, 3, 1471-1478; Sevrain et al., Organic & Biomolecular Chemistry, 2013 Jul. 21; 11(27):4479-87; Chantome et al., Cancer Research, 2013 Aug. 1; 73(15):4852-61, Gueguinou M, Crottès D, Chantôme A, Rapetti-Mauss R, Potier-Cartereau M, Clarysse L, Girault A, Fourbon Y, Jézéquel P, Guérin-Charbonnel C, Fromont G, Martin P, Pellissier B, Schiappa R, Chamorey E, Mignen O, Uguen A, Borgese F, Vandier C, Soriani O. Oncogene. 2017 Jan. 23. doi: 10.1038/onc.2016.501, Berthe W, Sevrain C M, Chantôme A, Bouchet A M, Gueguinou M, Fourbon Y, Potier-Cartereau M, Haelters J P, Couthon-Gourvès H, Vandier C, Jaffrès P A. ChemMedChem. 2016 Jul. 19; 11(14):1531-9, Guéguinou M, Harnois T, Crottes D, Uguen A, Deliot N, Gambade A, Chantôme A, Haelters J P, Jaffrès P A, Jourdan M L, Weber G, Soriani O, Bougnoux P, Mignen O, Bourmeyster N, Constantin B, Lecomte T, Vandier C, Potier-Cartereau M. Oncotarget. 2016 Jun. 14; 7(24):36168-36184. doi: 10.18632/oncotarget.8786).
For conventional patch clamp, the micropipette is filled with an intrapipette medium—IPM (see composition below) and allows measurement of ionic currents at the same time as allowing maintaining of membrane potential (voltage clamp). The experimental device was composed of an anti-vibration table supporting an inverted microscope (Nikon, Eclipse TE 300). The Petri dish (Corning Incorporated, USA), containing the cells was placed on a plexiglass plate attached to the microscope stage. The pipette was connected to the amplifier (Axopatch 200B) as reference electrode which allowed closing of the electrical circuit. […]

SK2 channel = biological target: T2, SK2 channel (Rattus norvegicus, UniProt P70604); assay: Automated patch clamp (Nanion NPC-16 Patchliner Quattro) on HEK-rSK2 cells, SK2 channel activity; format: cell-based; conditions: for inhibition at 0.001 µM: 1 nM; for inhibition at 0.01 µM: 10 nM
T2 construct: expressed in transfected cells
Source text: as §1, §2, §3
The technique of choice to determine molecules inhibiting the activity of ion channels is the patch-clamp technique. However, this technique which is manual is time-consuming and only gives low yields. Automation of patch-clamp brought a revolution in the study and screening of ion channels and has allowed the envisaging of assays with much faster flow rate and much higher yield. There exist several automatic patch clamp devices based on the use of chips. […]

[1] = test system: MDA-MB-435s-Luc cells expressing the SK3 channel; assay: In vivo mouse model of orthotopic xenograft: primary tumour and metastases; design: species or system female NMRI nude mice; conditions: 1 mg/kg intraperitoneal, three times per week
Source text: In Vivo Mouse Model of Orthotopic Xenograft: Assay on Capacity of the Molecules to Reduce Tumour Development
This model allowed study on a metastatic cancer with development of the primary tumour and formation of metastases in parallel with primary tumour development. For this assay, female NMRI nude mice aged four weeks were used. To prepare the graft, the terminal end bud of the mice was cauterised with an electrical scalpel and 2 million cells expressing the SK3 channel and luciferase (MDA-MB-435s-Luc) implanted therein. Luciferase allows in vivo monitoring of tumour development via optical imaging (Girault et al., Current Cancer Drug Targets, 2011, 11, 1111-25; Chantome et al., Cancer Research, 2013 Aug. 1; 73(15):4852-61).
Two groups of mice were formed and compound 20 was prepared in a DMSO/PEG300/Water mixture (5:45:50) at 10 ml/kg: • Group 20 1: group treated via intraperitoneal injection of compound 20 at 1 mg/kg, three times per week for […]; and • Control group: group given injections with equivalent vehicle dilution […], three times per week for 15 weeks.
Development of the primary tumour was monitored in two manners: size measurement with a calliper rule (length×width×thickness) and measurement of bioluminescence with a bio-imaging device.
If the primary tumour reached a size of 900 mm^3, it was fully excised to best approach a clinical situation and exclude this variable which could impact the development of metastases. The experiment was continued with injections of compound 20 and monitoring of the development of metastases via BLI with front and back imaging of the mice.
The weight of the mice, bioluminescence and tumour size measurements were carried out every week to monitor tumour changes and metastases. For imaging, the mice were anaesthetised with isoflurane.
After about 15 weeks, the mice were sacrificed. Luciferin was injected before sacrifice to allow whole-animal imaging and imaging of each organ examined (bone, liver, lymph node, brain, colon).

SMILES: c1ccc2c(c1)CCCC2Nc1ncnc2cccnc12 (centres unmarked) [Compound 7, N-(1,2,3,4-Tetrahydronaphthalen-1-yl)pyrido[3,2-d]pyrimidin-4-amine]
inhibition at 0.001 µM (SK3 channel): 42.2% | % SK3 inhibition (SK3 channel; 10 nM): 10 nM: 56.1 ± 4.8 (N = 3) % | % SK3 inhibition (SK3 channel; 100 nM): 100 nM: 81.3 ± 1.0 (N = 3) % | % SK3 inhibition (SK3 channel; 10 μM): 10 μM: 83.4 ± 3.2 (N = 8) % | inhibition at 0.001 µM (SK2 channel): 35% | inhibition at 0.01 µM (SK2 channel): 89.3% | % SK2 inhibition (SK2 channel; 100 nM): 100 nM: 91.5 ± 1.6 (N = 9) % | % SK2 inhibition (SK2 channel; 10 μM): 10 μM: 95.6 ± 1.2 (N = 9) %

SMILES: c1ccc2c(c1)CCC[C@H]2Nc1ncnc2cccnc12 [Compound 18, (R)—N-(1,2,3,4-Tetrahydronaphthalen-1-yl)pyrido[3,2-d]pyrimidin-4-amine]
inhibition at 0.001 µM (SK3 channel): 44.7% | inhibition at 0.01 µM (SK3 channel; 10 nM): 59.7% | inhibition at 0.1 µM (SK3 channel; 100 nM): 96% | inhibition at 10 µM (SK3 channel; 10 μM): 89.9% | inhibition at 0.001 µM (SK2 channel): 36.7% | inhibition at 0.01 µM (SK2 channel): 81.4% | inhibition at 0.1 µM (SK2 channel; 100 nM): 92.9% | inhibition at 10 µM (SK2 channel; 10 μM): 97%

SMILES: c1ccc2c(c1)CCC[C@@H]2Nc1ncnc2cccnc12 [Compound 20, (S)—N-(1,2,3,4-Tetrahydronaphthalen-1-yl)pyrido[3,2-d]pyrimidin-4-amine]
inhibition at 0.01 µM (SK3 channel; 10 nM): 45.5% | inhibition at 10 µM (SK3 channel; 10 μM): 92.8% | inhibition at 0.1 µM (SK2 channel; 100 nM): 91.2% | inhibition at 10 µM (SK2 channel; 10 μM): 91.8% | toxicity in xenografted mice [1]: apparent non-toxicity | weight of the mice versus control group ([1]; at 10 weeks, xenografted mice): no significant difference in weight between the two groups | primary tumour volume versus control group ([1]; at the time of primary tumour excision): Tumour volume did not differ between groups | lung metastases ([1]; ex vivo after 15 weeks): developed lung metastases | bone metastases ([1]; ex vivo after 15 weeks, FIG. 1): reduced the number of bone metastases | ovarian and uterine metastases ([1]; ex vivo after 15 weeks, FIG. 2): fully stopped the development of ovarian and uterine metastases

SMILES: c1cnc2c(NC3CCCCC3)ncnc2c1 [Compound 23, N-Cyclohexylpyrido[3,2-d]pyrimidin-4-amine]
inhibition at 10 µM (SK3 channel; 10 μM): 8.4% | inhibition at 10 µM (SK2 channel; 10 μM): 1%

SMILES: c1ccc2c3c(ccc2c1)CCCC3Nc1ncnc2cccnc12 (centres unmarked) [Compound 29, N-(1,2,3,4-Tetrahydrophenanthren-4-yl)pyrido[3,2-d]pyrimidin-4-amine]
inhibition at 10 µM (SK3 channel; 10 μM): 46% | inhibition at 10 µM (SK2 channel; 10 μM): 16.2%

SMILES: Cc1nc(NC2CCCc3ccccc32)c2ncccc2n1 (centres unmarked) [Compound 30, 2-Methyl-N-(1,2,3,4-tetrahydronaphthalen-1-yl)pyrido[3,2-d]pyrimidin-4-amine]
inhibition at 0.05 µM (SK3 channel): 35.5% | inhibition at 0.5 µM (SK3 channel): 52.9% | inhibition at 10 µM (SK3 channel; 10 μM): 87.2% | inhibition at 10 µM (SK2 channel; 10 μM): 95%

Results, then the molecule that gave them:

inhibition at 0.05 µM (SK3 channel): 32.9% | inhibition at 0.5 µM (SK3 channel): 40.4% | inhibition at 0.1 µM (SK2 channel; 100 nM): 92.7% | inhibition at 10 µM (SK2 channel; 10 μM): 94.8%
SMILES: Oc1nc(NC2CCCc3ccccc32)c2ncccc2n1 (centres unmarked) [Compound 34, 4-(1,2,3,4-tetrahydronaphthalen-1-ylamino)pyrido[3,2-d]pyrimidin-2-ol]

inhibition at 0.1 µM (SK2 channel; 100 nM): 83.7% | inhibition at 10 µM (SK2 channel; 10 μM): 91.4%
SMILES: CNc1nc(NC2CCCc3ccccc32)c2ncccc2n1 (centres unmarked) [Compound 35, N^2-methyl-N^4-(1,2,3,4-tetrahydronaphthalen-1-yl)pyrido[3,2-d]pyrimidine-2,4-diamine]

inhibition at 0.1 µM (SK3 channel; 100 nM): 11.9% | inhibition at 10 µM (SK3 channel; 10 μM): 82.2% | inhibition at 0.1 µM (SK2 channel; 100 nM): 25.6% | inhibition at 10 µM (SK2 channel; 10 μM): 88.1%
SMILES: CCCCCCc1cnc2c(NC3CCCc4ccccc43)ncnc2c1 (centres unmarked) [Compound 40, 7-Hexyl-N-(1,2,3,4-tetrahydronaphthalen-1-yl)pyrido[3,2-d]pyrimidin-4-amine]

inhibition at 0.001 µM (SK3 channel): 7.4% | inhibition at 0.01 µM (SK3 channel; 10 nM): 42.6% | inhibition at 0.05 µM (SK3 channel): 29.2% | inhibition at 0.1 µM (SK3 channel; 100 nM): 41.9% | inhibition at 0.5 µM (SK3 channel): 94.2% | inhibition at 10 µM (SK3 channel; 10 μM): 62.2% | inhibition at 0.05 µM (SK2 channel; 50 nM): 29.2% | inhibition at 0.1 µM (SK2 channel; 100 nM): 41.9% | inhibition at 0.5 µM (SK2 channel; 500 nM): 43.2% | inhibition at 10 µM (SK2 channel; 10 μM): 62.2%
SMILES: c1ccc2c(c1)CCCN2Nc1ncnc2cccnc12 [Compound 53, N-(3,4-Dihydroquinolin-1(2H)-yl)pyrido[3,2-d]pyrimidin-4-amine]

% SK3 inhibition (SK3 channel; 10 nM): 10 nM: 92.43 ± 0.78 (N = 2) % | inhibition at 0.1 µM (SK3 channel; 100 nM): 85.4% | inhibition at 10 µM (SK3 channel; 10 μM): 88.8% | inhibition at 0.1 µM (SK2 channel; 100 nM): 80% | inhibition at 10 µM (SK2 channel; 10 μM): 93.3%
SMILES: Cl.c1ccc2c(c1)CCCC2Nc1ncnc2cccnc12 (centres unmarked) [Compound 75, N-Tetralin-1-ylpyrido[3,2-d]pyrimidin-3-ium-4-amine chloride]
